In publication PMC7753147, “High-throughput determination of protein affinities using unmodified peptide libraries in nanomolar scale” (iScience, 2020):

How the values were obtained:
[1] = tested on: gephE; test: µSPOT peptide microarray binding assay with recombinant gephE; conditions: normalized to most prominent spot, n = 2 array-internal duplicate
[2] = tested on: native geph; test: µSPOT peptide microarray binding assay with native geph from mouse brain lysate; conditions: normalized to most prominent spot, n = 2 array-internal duplicate
[3] = overlapping GABAAR α3 peptide library on µSPOT array, 20 nM gephE
[4] = overlapping GABAAR α3 peptide library on µSPOT array, 6% mouse brain lysate
[5] = overlapping GlyR β peptide library on µSPOT array, 50 nM gephE, anti-gephyrin 3B11/HRP chemiluminescence
[6] = overlapping GlyR β peptide library on µSPOT array, 3% mouse brain lysate

gephE Binding Intensity [norm.] [1, 3] [norm.]	Native geph Binding Intensity [norm.] [2, 4] [norm.]	gephE Binding Intensity [norm.] [1, 5] [norm.]	Native geph Binding Intensity [norm.] [2, 6] [norm.]	Sequence
–	–	0.645	0.379	CTSKSDLRSNDFSIVGSLPR [Glycine receptor subunit beta_021, GlyR β residues 409-428]
–	–	0.049	0.093	DCYGKPIEVNNGLGKPQAKN [Glycine receptor subunit beta_030, GlyR β residues 436-455]
–	–	0.112	0.180	FELSNYDCYGKPIEVNNGLG [Glycine receptor subunit beta_028, GlyR β residues 430-449]
–	–	0.036	0.069	GKPIEVNNGLGKPQAKNKKP [Glycine receptor subunit beta_031, GlyR β residues 439-458]
–	–	0.132	0.134	GSLPRDFELSNYDCYGKPIE [Glycine receptor subunit beta_026, GlyR β residues 424-443]
–	–	0.042	0.042	HISTLQVGETRCKKVCTSKS [Glycine receptor subunit beta_016, GlyR β residues 394-413]
–	–	0.009	0.075	IEVNNGLGKPQAKNKKPPPA [Glycine receptor subunit beta_032, GlyR β residues 442-461]
–	–	0.393	0.309	KKVCTSKSDLRSNDFSIVGS [Glycine receptor subunit beta_020, GlyR β residues 406-425]
–	–	0.016	0.068	KNKKPPPAKPVIPTAAKRID [Glycine receptor subunit beta_036, GlyR β residues 454-473]
–	–	0.037	0.075	KPPPAKPVIPTAAKRIDL [Glycine receptor subunit beta_037, GlyR β residues 457-474]
–	–	0.972	0.945	KSDLRSNDFSIVGSLPRDFE [Glycine receptor subunit beta_022, GlyR β residues 412-431]
–	–	0.022	0.061	LGKPQAKNKKPPPAKPVIPT [Glycine receptor subunit beta_034, GlyR β residues 448-467]
–	–	1.000	1.000	LRSNDFSIVGSLPRDFELSN [Glycine receptor subunit beta_023, GlyR β residues 415-434]
–	–	0.599	0.561	NDFSIVGSLPRDFELSNYDC [Glycine receptor subunit beta_024, GlyR β residues 418-437]

The next lines start with the sequence.

Sequence	gephE Binding Intensity [norm.] [1, 3] [norm.]	Native geph Binding Intensity [norm.] [2, 4] [norm.]	gephE Binding Intensity [norm.] [1, 5] [norm.]	Native geph Binding Intensity [norm.] [2, 6] [norm.]
AAPSASSTPTAIASPKATYV [GABAAR α3 residues 420-439, µSpot library]	0.038	0.080	–	–
ADGKGGNAAKKNTVNGTGTP [Glycine receptor subunit beta_009]	–	–	0.015	0.067
AEQADGKGGNAAKKNTVNGT [Glycine receptor subunit beta_008, GlyR β residues 370-389]	–	–	0.023	0.065
APTKKNTTFNIVGTTYPINL [GABAAR α3 residues 387-406, µSpot library]	1.000	0.767	–	–
ASPKATYVQDSPAETKTYNS [GABAAR α3 residues 432-451, µSpot library]	0.020	0.050	–	–
EAEKARIAKAEQADGKGGNA [Glycine receptor subunit beta_005, GlyR β residues 361-380]	–	–	0.024	0.113
EFSTISKSAAAPSASSTPTA [GABAAR α3 residues 411-430, µSpot library]	0.028	0.127	–	–
GTGTPVHISTLQVGETRCKK [Glycine receptor subunit beta_014, GlyR β residues 388-407]	–	–	0.044	0.068
GTTYPINLAKDTEFSTISKS [GABAAR α3 residues 399-418, µSpot library]	0.030	0.098	–	–
IAKAEQADGKGGNAAKKNTV [Glycine receptor subunit beta_007]	–	–	0.025	0.066
KARIAKAEQADGKGGNAAKK [Glycine receptor subunit beta_006, GlyR β residues 364-383]	–	–	0.040	0.091
KATYVQDSPAETKTYNSVSK [GABAAR α3 residues 435-454, µSpot library]	0.070	0.059	–	–
KDTEFSTISKSAAAPSASST [GABAAR α3 residues 408-427, µSpot library]	0.020	0.136	–	–
KGGNAAKKNTVNGTGTPVHI [Glycine receptor subunit beta_010]	–	–	0.024	0.077
KKKTPAAPTKKNTTFNIVGT [GABAAR α3 residues 381-400, µSpot library]	0.053	0.115	–	–
KKNTTFNIVGTTYPINLAKD [GABAAR α3 residues 390-409, µSpot library]	0.443	0.243	–	–
KKNTVNGTGTPVHISTLQVG [Glycine receptor subunit beta_012]	–	–	0.023	0.085
KKVPEALEMKKKTPAAPTKK [GABAAR α3 residues 372-391, µSpot library]	0.038	0.081	–	–
KRVEAEKARIAKAEQADGKG [Glycine receptor subunit beta_004]	–	–	0.052	0.117
KSAAAPSASSTPTAIASPKA [GABAAR α3 residues 417-436, µSpot library]	0.030	0.103	–	–
LEMKKKTPAAPTKKNTTFNI [GABAAR α3 residues 378-397, µSpot library]	0.059	0.085	–	–
NAAKKNTVNGTGTPVHISTL [Glycine receptor subunit beta_011, GlyR β residues 379-398]	–	–	0.011	0.077
NIVGTTYPINLAKDTEFSTI [GABAAR α3 residues 396-415, µSpot library]	0.044	0.114	–	–
